Experimental data: patent US10736856B2, “Use of xibornol as active agent in the treatment of viral infections” (priority 2016, dated 2020)
“Also recorded” adds a separate entry of the source.

Columns and labels:
Test in all cases: Xibornol virucidal efficacy test (UNI EN 14476 adapted), residual viral titer by Karber micromethod
Details in all cases: for Average viral titre after 15 minutes contact / Logarithmic reduction: 15 minutes contact
[1] = tested on: Human Coronavirus; assay type: cell-based, Human Coronavirus (ATCC VR-740), titrated on MRC-5
Description: (§1) The experimentation was conducted by using the following strains from ATCC: • VR-5 Human Adenovirus 5; Strain: Adenoid 75, • VR-286 Picornaviridae, Rhinovirus, Human Rhinovirus A, • VR-740 Human Coronavirus.
(§2) The cell lines used for the isolation of the target viruses were: • ATCC CCL-2 HeLa—Cervical Adenocarcinoma—Human (Homo sapiens), briefly ‘HeLa’, for the study of Human Adenovirus 5 and Human Rhinovirus, and • ATCC CCL-171 MRC-5-Lung Fibroblast-Human (Homo Sapiens), briefly ‘MRC-5’ for the study of Human Coronavirus.
(§3) The tests to assess the toxicity of xibornol were performed as per UNI EN 14476 protocol, which refers to the “virucidal activity of chemical disinfectants or antiseptics for tools, surfaces or hands forming a physically stable homogeneous mixture when diluted with hard water or water”, suitably adapted, also considering that xibornol is soluble in alcohol (ethanol) that is already well known to have toxic effects for cell cultures.
(§4) Therefore, it was decided to use preparations in which xibornol was diluted with different solvents, in order also to be able to test both the solution and the suspension condition. After several tests, a reliable method was set up, by using Labrasol®, namely caprylocaproyl polyoxyl-8 glyceride, as solvent and formulating xibornol in solution.
(§5) For each of the 3 viruses, 3 replicates were performed with 10 mL mixtures consisting of: • 1 mL Labrasol® (“clean” tests) or 1 mL of fetal bovine serum (“dirt” tests); • 8 mL xibornol for each dilution (8%, 3%, 0.5%) at the non-toxic concentration for the cell cultures: 10^−3, 10^−2 and 10^−1 respectively, and corresponding to 0.008 g/100 mL, 0.030 g/100 mL and […]. Dilutions made in Labrasol®; • 1 mL of virus with known titer.
(§6) The tests carried out in “dirt” situations, specified by the standard protocol, were intended to create a more “difficult” environment for the performance of the virucidal activity by xibornol, hindered in its activity by the presence of further polluting components, as actually happens in the application environment of the active ingredient, allowing recreating and simulating as closely as possible the conditions of use.
(§7) For tests performed in “dirt” condition, the erythrocytes were not mixed with the bovine fetal serum, as indicated by the European standard, because of the interfering effect they have towards the cell lines used in the tests, which would have led to difficulties in interpreting the results.
(§8) Moreover, for each replicate, a negative control was used, consisting of: • 1 mL virus; • 9 mL Labrasol® (“clean” tests) or 8 mL Labrasol®+1 mL fetal bovine serum (“dirt” tests).
(§9) Contact time: 15 minutes.
(§10) After this interval, the mixtures were analysed to assess the residual viral titer by titration, Karber micromethod.
(§11) The data obtained were analysed with the Excel program for the evaluation of averages and total logarithmic standard deviations.

[2] = tested on: Human Rhinovirus; assay type: cell-based, Human Rhinovirus A (ATCC VR-286), titrated on HeLa
Description: as §1, §2, §3, §4, §5, §6, §7, §8, §9, §10, §11

[3] = tested on: Human Adenovirus 5; assay type: cell-based
Description: as §1, §2, §3, §4, §5, §6, §7, §8, §9, §10, §11

[4] = after 15 minutes of contact, all concentrations tested (0.008, 0.030, 0.05 g/100 mL)
[5] = extrapolated from trend curve to xibornol 3 g per 100 mL of solution
[6] = “clean” test, working concentration 0.008 g/100 mL (8% solution, dilution 10^−3)
[7] = “clean” test, working concentration 0.03 g/100 mL (3% solution, dilution 10^−2)
[8] = “clean” test, working concentration 0.05 g/100 mL (0.5% solution, dilution 10^−1)
[9] = “dirt” test (fetal bovine serum), working concentration 0.008 g/100 mL (8% solution, dilution 10^−3)
[10] = “dirt” test (fetal bovine serum), working concentration 0.03 g/100 mL (3% solution, dilution 10^−2)
[11] = “dirt” test (fetal bovine serum), working concentration 0.05 g/100 mL (0.5% solution, dilution 10^−1)

Question: Which results are given for `Cc1cc(O)c(C2CC3CCC2(C)C3(C)C)cc1C` (centres unmarked) [xibornol, 4,5-dimethyl-2-[1,7,7-trimethylbicyclo[2.2.1]heptan-2-yl]phenol]?
Answer: killing extent (reduction of viral load) [1, 4]: greater than 2 orders of magnitude; killing peak (reduction of viral load) ([1]; after 15 minutes of contact, highest value reached): 3.8 orders of magnitude; final average titer after treatment, extrapolated [1, 5]: very close to zero; reduction of the viral load titer (expressed as logarithm), extrapolated [1, 5]: at least of two orders of magnitude; also recorded: almost total reduction; Average viral titre after 15 minutes contact [1, 6]: 1.8 ± 0.7 Log DCP50/mL; Logarithmic reduction [1, 6]: 3.4; Average viral titre after 15 minutes contact [1, 7]: 1.4 ± 0 Log DCP50/mL; Logarithmic reduction [1, 7]: 3.8; Average viral titre after 15 minutes contact [1, 8]: 1.6 ± 0.3 Log DCP50/mL; Logarithmic reduction [1, 8]: 3.6; Average viral titre after 15 minutes contact [1, 9]: 1.7 ± 0.7 Log DCP50/mL; Logarithmic reduction [1, 9]: 2.3; Average viral titre after 15 minutes contact [1, 10]: 1.5 ± 0.6 Log DCP50/mL; Logarithmic reduction [1, 10]: 2.6; Average viral titre after 15 minutes contact [1, 11]: 1.6 ± 0.4 Log DCP50/mL; Logarithmic reduction [1, 11]: 2.5; reduction of the viral titer, average ([1]; “dirt” tests): more than two orders of magnitude; killing extent (reduction of viral load) [2, 4]: greater than 2 orders of magnitude; final average titer after treatment, extrapolated [2, 5]: very close to zero; reduction of the viral load titer (expressed as logarithm), extrapolated [2, 5]: at least of two orders of magnitude; also recorded: almost total reduction; Average viral titre after 15 minutes contact [2, 6]: 2 ± 0.1 Log DCP50/mL; Logarithmic reduction [2, 6]: 2.2; Average viral titre after 15 minutes contact [2, 7]: 1.3 ± 0.5 Log DCP50/mL; Logarithmic reduction [2, 7]: 2.9; Average viral titre after 15 minutes contact [2, 8]: 1.2 ± 0.4 Log DCP50/mL; Logarithmic reduction [2, 8]: 3; Average viral titre after 15 minutes contact [2, 9]: 1 ± 0.1 Log DCP50/mL; Logarithmic reduction [2, 9]: 2.8; Average viral titre after 15 minutes contact [2, 10]: 0.7 ± 0.1 Log DCP50/mL; Logarithmic reduction [2, 10]: 3.1; Average viral titre after 15 minutes contact [2, 11]: 0.8 ± 0.1 Log DCP50/mL; Logarithmic reduction [2, 11]: 3; reduction of the viral titer, average ([2]; “dirt” tests): more than two orders of magnitude; reduction of the viral titer, highest reached ([2]; “dirt” tests): ≥ 3 orders of magnitude; killing extent (reduction of viral load) [3, 4]: greater than 2 orders of magnitude; final average titer after treatment, extrapolated [3, 5]: very close to zero; reduction of the viral load titer (expressed as logarithm), extrapolated [3, 5]: at least of two orders of magnitude; also recorded: almost total reduction; Average viral titre after 15 minutes contact [3, 6]: 2 ± 0.8 Log DCP50/mL; Logarithmic reduction [3, 6]: 2.4; Average viral titre after 15 minutes contact [3, 7]: 1.3 ± 1 Log DCP50/mL; Logarithmic reduction [3, 7]: 3.1; Average viral titre after 15 minutes contact [3, 8]: 1.1 ± 0.1 Log DCP50/mL; Logarithmic reduction [3, 8]: 3.3; Average viral titre after 15 minutes contact [3, 9]: 1.1 ± 0.6 Log DCP50/mL; Logarithmic reduction [3, 9]: 2; Average viral titre after 15 minutes contact [3, 10]: 1.2 ± 0.6 Log DCP50/mL; Logarithmic reduction [3, 10]: 1.9; Average viral titre after 15 minutes contact [3, 11]: 0.8 ± 0.5 Log DCP50/mL; Logarithmic reduction [3, 11]: 2.3; reduction of the viral titer, average ([3]; “dirt” tests): more than two orders of magnitude
